Laboratory results from ChEMBL document CHEMBL4482325, “Clpx inhibitory compounds for the treatment of multi resistant staphylococcus aureus virulence and for the treatment of leukemia” (2018).
Each block holds one molecule with its values, some of them ahead of it. Calls of active or inactive are those of the source. The rule behind the calls is not given here.

Key:
Staphylococcus aureus [1] = assay: (§1) Inhibition of Staphylococcus aureus ClpXP using ssrA degradation tagged fluorescent GFP substrate in presence of ATP regeneration system pre-incubation for 15 mins before substrate addition by fluorescence assay
[2] = as §1
[3] = target: T1, ATP-dependent Clp protease proteolytic subunit (Staphylococcus aureus (strain NCTC 8325)) (UniProt Q2G036); assay: Inhibition of Staphylococcus aureus ClpP using ssrA degradation tagged fluorescent GFP substrate in presence of ATP regeneration system pre-incubation for 15 mins before substrate addition by fluorescence assay
T1 sequence (whole entry): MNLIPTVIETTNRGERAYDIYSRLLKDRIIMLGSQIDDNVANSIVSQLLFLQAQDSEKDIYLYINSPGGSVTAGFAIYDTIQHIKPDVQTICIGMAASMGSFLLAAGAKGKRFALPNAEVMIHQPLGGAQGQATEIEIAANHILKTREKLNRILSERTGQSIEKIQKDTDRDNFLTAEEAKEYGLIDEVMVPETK

Staphylococcus aureus [4] = assay: Inhibition of Staphylococcus aureus ClpCP at 100 uM using ssrA degradation tagged fluorescent GFP substrate in presence of ATP regeneration system pre-incubation for 15 mins before substrate addition by fluorescence assay
[5] = Inhibition of Staphylococcus aureus ClpPX assessed as reduction in ATP hydrolysis incubated for 2 to 14 mins by malachite green assay
Homo sapiens [6] = species: Homo sapiens; assay: Inhibition of human ClpXP at 1 to 100 uM preincubated for 15 mins before FITC-labeled casein substrate addition in presence of ATP regeneration mix and creatine kinase
K562 = assay: Cytotoxicity against human K562 cells assessed as reduction in cell viability up to 100 uM incubated for 72 hrs by cell-titer blue reagent based assay; format: functional
Homo sapiens [7] = species: Homo sapiens; assay: Cytotoxicity against human S-Jurkat cells assessed as reduction in cell viability up to 120 uM incubated for 72 hrs by cell-titer blue reagent based assay; format: functional
CCRF-CEM = assay: Cytotoxicity against human CCRF-CEM cells assessed as reduction in cell viability up to 120 uM incubated for 72 hrs by cell-titer blue reagent based assay; format: functional
Staphylococcus aureus [8] = assay: Inhibition of Staphylococcus aureus ClpXP using ssrA degradation tagged fluorescent GFP substrate in presence of ATP regeneration system pre-incubation for 15 mins before substrate addition by fluorescence assay relative to control
A549 = assay: Cytotoxicity against human A549 cells assessed as reduction in residual metabolic activity at 1 to 50 uM incubated for 24 hrs by MTT assay; format: functional, cell-based
Staphylococcus aureus [9] = assay: Binding affinity to Staphylococcus aureus ClpXP assessed as induction of collapse of ClpXP proteolytic complex
[10] = (§2) Inhibition of ClpXP in Staphylococcus aureus NCTC 8325 assessed as reduction in extracellular proteolytic activity by measuring hemolysis of sheep erythrocytes exposed to supernatants of 20 hrs compound pre-treated Staphylococcus aureus
Staphylococcus aureus [11] = assay: as §2
Staphylococcus aureus [12] = assay: Inhibition of ClpXP in Staphylococcus aureus NCTC 8325 assessed as reduction in extracellular proteolytic activity by measuring overall proteolysis of sheep erythrocytes exposed to supernatants of 20 hrs 0.1 to 30 nmol compound pre-treated Staphylococcus aureus
Staphylococcus aureus [13] = assay: Suppression of virulence factors in Staphylococcus aureus NCTC 8325 assessed as reduction in gamma hemolysin-C protein expression; format: functional, organism-based
Staphylococcus aureus [14] = assay: Suppression of virulence factors in Staphylococcus aureus NCTC 8325 assessed as reduction in serine protease A expression; format: functional, organism-based
Staphylococcus aureus [15] = assay: Suppression of virulence factors in Staphylococcus aureus NCTC 8325 assessed as reduction in serine protease B expression; format: functional, organism-based
Staphylococcus aureus [16] = assay: Suppression of virulence factors in Staphylococcus aureus NCTC 8325 assessed as reduction in serine protease C expression; format: functional, organism-based
Staphylococcus aureus [17] = assay: Suppression of virulence factors in Staphylococcus aureus NCTC 8325 assessed as reduction in serine protease D expression; format: functional, organism-based
Staphylococcus aureus [18] = assay: Suppression of virulence factors in Staphylococcus aureus NCTC 8325 assessed as reduction in serine protease E expression; format: functional, organism-based
Staphylococcus aureus [19] = assay: Suppression of virulence factors in Staphylococcus aureus NCTC 8325 assessed as reduction in serine protease F expression; format: functional, organism-based
Staphylococcus aureus [20] = assay: Suppression of virulence factors in Staphylococcus aureus NCTC 8325 assessed as reduction in staphopain-A expression; format: functional, organism-based
[21] = Half life in mouse plasma at 100 uM by HPLC and MS analysis; format: ADME, cell-free
Staphylococcus aureus [22] = assay: Binding affinity to Staphylococcus aureus ClpPX assessed as induction of covalent modification a 100 um incubated for 60 mins by intact mass spectrometry

Structure (SMILES): C#CCNC(=O)c1ccc2c(c1)C1=C(C2=O)C(c2cccc(OC)c2)Sc2ccccc2N1 (stereo not drawn)
inhibition (active/not active) (Staphylococcus aureus [1]): Active

Structure (SMILES): COc1ccc(-n2ccnc(SCC(=O)Nc3cc(OC)cc(OC)c3)c2=O)cc1
IC50 [2]: 2.2 µM | inhibition [3]: inactive | inhibition (Staphylococcus aureus [4]): inactive

Structure (SMILES): C#Cc1ccc2c(c1)C1=C(C2=O)C(c2cc(O)cc(N=[N+]=[N-])c2)Sc2ccccc2N1 (stereo not drawn)
inhibition (active/not active) (Staphylococcus aureus [1]): Active

Structure (SMILES): N#CC1=C(N)Oc2[nH]nc(-c3ccc(Br)cc3)c2C1c1ccc(OC(=O)c2ccco2)cc1 (stereo not drawn)
IC50 [2]: 3.1 µM | inhibition [3]: inactive | inhibition (Staphylococcus aureus [4]): inactive

Structure (SMILES): O=C1C2=C(Nc3ccccc3S(=O)(=O)C2c2ccc(C(F)(F)F)cc2)c2ccccc21 (stereo not drawn)
inhibition (active/not active) (Staphylococcus aureus [1]): Active

Structure (SMILES): Cc1ccc(NC(=O)Cc2ccc(NC(=O)N3CCCCc4ccccc43)cc2)cc1C
IC50 [2]: 1.6 µM | inhibition [3]: inactive | inhibition (Staphylococcus aureus [4]): inactive

Structure (SMILES): N#CC1=C(N)Oc2cc3c(cc2C1c1ccc(OCc2ccc(F)cc2)cc1)OCO3 (stereo not drawn)
IC50 [2]: 0.6 µM | inhibition [3]: inactive | inhibition (Staphylococcus aureus [4]): inactive

Structure (SMILES): O=C1C2=C(Nc3ccccc3S(=O)(=O)C2c2ccc(-c3ccccc3)cc2)c2ccccc21 (stereo not drawn)
inhibition (active/not active) (Staphylococcus aureus [1]): Active

Structure (SMILES): C#Cc1ccc2c(c1)C(=O)C1=C2Nc2ccccc2SC1c1cc(O)cc(N=[N+]=[N-])c1 (stereo not drawn)
inhibition (active/not active) (Staphylococcus aureus [1]): Active

Structure (SMILES): COc1cccc(C2C3=C(Nc4ccccc4S2(=O)=O)c2ccccc2C3=O)c1 (stereo not drawn)
inhibition (active/not active) (Staphylococcus aureus [1]): Active

Structure (SMILES): O=C1C2=C(Nc3ccccc3S(=O)(=O)C2c2ccc(F)cc2)c2ccccc21 (stereo not drawn)
inhibition (active/not active) (Staphylococcus aureus [1]): Active

Structure (SMILES): O=C1C2=C(Nc3ccccc3SC2c2cccc(O)c2)c2cc(Cl)c(Cl)cc21 (stereo not drawn)
inhibition (active/not active) (Staphylococcus aureus [1]): Active

Structure (SMILES): C#CCNC(=O)c1ccc2c(c1)C(=O)C1=C2Nc2ccccc2SC1c1cccc(O)c1 (stereo not drawn)
inhibition (active/not active) (Staphylococcus aureus [1]): Active

Structure (SMILES): O=C1C2=C(Nc3ccccc3SC2c2cccc(O)c2)c2ccccc21 (stereo not drawn)
IC50 [2]: 1.5 µM | inhibition [3]: inactive | IC50 [5]: 1.6 to 2.4 µM | Activity (Staphylococcus aureus [9]): Active | inhibition (Staphylococcus aureus [8]): 100% | IC50 [10]: 3 µM | inhibition (Staphylococcus aureus [11]): Dose-dependent effect | inhibition (Staphylococcus aureus [12]): Active | Activity (Staphylococcus aureus [13]): Dose-dependent effect | EC50 (Staphylococcus aureus [13]): 3 µM | Activity (Staphylococcus aureus [14]): Dose-dependent effect | EC50 (Staphylococcus aureus [14]): 3 µM | Activity (Staphylococcus aureus [15]): Dose-dependent effect | EC50 (Staphylococcus aureus [15]): 3 µM | Activity (Staphylococcus aureus [16]): Dose-dependent effect | EC50 (Staphylococcus aureus [16]): 3 µM | Activity (Staphylococcus aureus [17]): Dose-dependent effect | EC50 (Staphylococcus aureus [17]): 3 µM | Activity (Staphylococcus aureus [18]): Dose-dependent effect | EC50 (Staphylococcus aureus [18]): 3 µM | Activity (Staphylococcus aureus [19]): Dose-dependent effect | EC50 (Staphylococcus aureus [19]): 3 µM | Activity (Staphylococcus aureus [20]): Dose-dependent effect | EC50 (Staphylococcus aureus [20]): 3 µM | inhibition (Homo sapiens [6]): Active | half-life at 100 µM [21]: > 4 h | Activity (K562): Active | Activity (Homo sapiens [7]): Active | Activity (CCRF-CEM): Active | inhibition (Staphylococcus aureus [4]): inactive | Activity (Staphylococcus aureus [22]): inactive

Structure (SMILES): C#CCNC(=O)c1ccc2c(c1)C1=C(C2=O)C(c2cccc(O)c2)Sc2ccccc2N1 (stereo not drawn)
inhibition (active/not active) (Staphylococcus aureus [1]): Active

Structure (SMILES): C#CCNC(=O)c1ccc2c(c1)C(=O)C1=C2Nc2ccccc2SC1c1cccc(OC)c1 (stereo not drawn)
inhibition (active/not active) (Staphylococcus aureus [1]): Active

Structure (SMILES): O=C1C2=C(Nc3ccccc3S(=O)(=O)C2c2cccc(O)c2)c2ccccc21 (stereo not drawn)
inhibition (active/not active) (Staphylococcus aureus [1]): Active | Activity (A549): inactive

Structure (SMILES): COC(=O)c1ccc(OC(=O)CCc2cc(OC)c(OC)c(OC)c2)cc1
inhibition (Staphylococcus aureus [4]): inactive

Second part, led by results:

inhibition (active/not active) (Staphylococcus aureus [1]): inactive
Structure (SMILES): O=C1C2=C(Nc3ccccc3SC2c2ccccc2O)c2ccccc21 (stereo not drawn)

inhibition (active/not active) (Staphylococcus aureus [1]): Active
Structure (SMILES): C#Cc1ccc2c(c1)C1=C(C2=O)C(c2cccc(O)c2)Sc2ccccc2N1 (stereo not drawn)

inhibition (active/not active) (Staphylococcus aureus [1]): Active
Structure (SMILES): O=C1C2=C(Nc3ccccc3SC2c2ccc(C(F)(F)F)cc2)c2ccccc21 (stereo not drawn)

IC50 [2]: 2.5 µM | inhibition [3]: inactive | IC50 [5]: 1.6 to 2.4 µM | inhibition (Homo sapiens [6]): Active | inhibition (Staphylococcus aureus [4]): inactive
Structure (SMILES): O=C1C2=C(Nc3ccccc3SC2c2cccs2)c2ccccc21 (stereo not drawn)
Activity (K562): Active | Activity (Homo sapiens [7]): Active | Activity (CCRF-CEM): Active

inhibition (active/not active) (Staphylococcus aureus [1]): inactive
Structure (SMILES): O=C1C2=C(Nc3ccccc3SC2c2cccnc2)c2ccccc21 (stereo not drawn)

inhibition (active/not active) (Staphylococcus aureus [1]): Active
Structure (SMILES): O=C1C2=C(Nc3ccccc3SC2c2cccc(F)c2)c2ccccc21 (stereo not drawn)

inhibition (active/not active) (Staphylococcus aureus [1]): Active
Structure (SMILES): Nc1cccc(C2Sc3ccccc3NC3=C2C(=O)c2ccccc23)c1 (stereo not drawn)

inhibition (active/not active) (Staphylococcus aureus [1]): Active
Structure (SMILES): O=C1C2=C(Nc3ccccc3SC2c2cc(O)cc(O)c2)c2ccccc21 (stereo not drawn)

inhibition (active/not active) (Staphylococcus aureus [1]): Active
Structure (SMILES): COc1ccc2c(c1)SC(c1cccc(O)c1)C1=C(N2)c2ccccc2C1=O (stereo not drawn)

inhibition (active/not active) (Staphylococcus aureus [1]): Active | inhibition (Staphylococcus aureus [8]): 35%
Structure (SMILES): CC(=O)Oc1ccc(C2Sc3ccccc3NC3=C2C(=O)c2ccccc23)cc1 (stereo not drawn)

inhibition (active/not active) (Staphylococcus aureus [1]): Active
Structure (SMILES): O=C1C2=C(Nc3ccccc3SC2c2ccc(O)cc2)c2ccccc21 (stereo not drawn)

inhibition (active/not active) (Staphylococcus aureus [1]): inactive
Structure (SMILES): O=C(O)c1ccc(C2Sc3ccccc3NC3=C2C(=O)c2ccccc23)cc1 (stereo not drawn)

inhibition (active/not active) (Staphylococcus aureus [1]): Active
Structure (SMILES): COc1cc(O)cc(C2Sc3ccccc3NC3=C2C(=O)c2ccccc23)c1 (stereo not drawn)

inhibition (active/not active) (Staphylococcus aureus [1]): Active
Structure (SMILES): O=C1C2=C(Nc3ccccc3SC2c2ccccc2)c2ccccc21 (stereo not drawn)

inhibition (active/not active) (Staphylococcus aureus [1]): Active
Structure (SMILES): O=C1C2=C(Nc3ccccc3SC2c2cc(O)cc(Br)c2)c2ccccc21 (stereo not drawn)

inhibition (active/not active) (Staphylococcus aureus [1]): Active
Structure (SMILES): COc1cccc(C2Sc3ccccc3NC3=C2C(=O)c2ccccc23)c1 (stereo not drawn)

inhibition (active/not active) (Staphylococcus aureus [1]): Active
Structure (SMILES): C#Cc1ccc2c(c1)C(=O)C1=C2Nc2ccccc2SC1c1cccc(O)c1 (stereo not drawn)

inhibition (active/not active) (Staphylococcus aureus [1]): Active
Structure (SMILES): O=C1C2=C(Nc3ccccc3SC2c2cccc(CO)c2)c2ccccc21 (stereo not drawn)
Activity (A549): inactive

inhibition (active/not active) (Staphylococcus aureus [1]): Active
Structure (SMILES): C#CCCCCOc1cc(O)cc(C2Sc3ccccc3NC3=C2C(=O)c2ccccc23)c1 (stereo not drawn)

inhibition (active/not active) (Staphylococcus aureus [1]): Active
Structure (SMILES): O=C1C2=C(Nc3ccccc3NC2c2ccccc2)c2ccccc21 (stereo not drawn)

inhibition (active/not active) (Staphylococcus aureus [1]): Active
Structure (SMILES): O=C1C2=C(Nc3ccccc3SC2c2ccc(F)cc2)c2ccccc21 (stereo not drawn)

inhibition (active/not active) (Staphylococcus aureus [1]): Active
Structure (SMILES): O=C1C2=C(Nc3ccccc3SC2c2ccc(-c3ccccc3)cc2)c2ccccc21 (stereo not drawn)
